Source: PMC3969711 (Chembiochem : a European journal of chemical biology, 2014)
Where “and” joins values, the source holds several entries; their conditions need not be identical. Equal values may be shown once. Read-outs that look alike come from different tables or passages of the source.

Tests used:
LasR [1] = target: T1, LasR (Pseudomonas aeruginosa, UniProt P25084); type: cell-based, P. aeruginosa; settings: for Fold change of IC50: IC50 in PAO-JP2 vs PAO-JG21
LasR [2] = target: T1, LasR; experiment: LasR competitive antagonism reporter assay in pump-mutant PAO-JG21; type: cell-based, P. aeruginosa; settings: PAO-JG21, 25 µg/mL PAβN
LasR [3] = target: T1, LasR; settings: in P. aeruginosa, related reporter constructs; cited from earlier work
LasR [4] = target: T1, LasR; settings: in E. coli, related reporter constructs; cited from earlier work
wild-type P. aeruginosa = settings: cited from earlier work

T1 sequence (P25084 whole entry): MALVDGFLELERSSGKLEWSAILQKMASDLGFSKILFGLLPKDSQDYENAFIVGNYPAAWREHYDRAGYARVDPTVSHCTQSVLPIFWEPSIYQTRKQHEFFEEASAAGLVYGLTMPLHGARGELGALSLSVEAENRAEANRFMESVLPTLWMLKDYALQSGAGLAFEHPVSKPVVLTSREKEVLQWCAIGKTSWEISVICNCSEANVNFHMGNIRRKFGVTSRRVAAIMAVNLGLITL

Compound | Fold change of IC50 (LasR [1]) | effect of pump inhibitor PAβN on LasR inhibitory potency (LasR [1]; PAO-JP2, 25 µg/mL PAβN) | maximum inhibition of LasR activity (LasR [1]; PAO-JP2 harboring plasI-LVAgfp, dose-response (Figure S-14)) | effect of pump inhibitor PAβN on LasR inhibitory potency (LasR [2]) | inhibition of LasR activity (LasR [3]) [%] | inhibition of LasR activity (LasR [4]) [%] | inhibition of pyocyanin production (wild-type P. aeruginosa)
Cc1cc2nc(N)[nH]c2cc1C [DMABI, 5,6-dimethyl-2-aminobenzimidazole] | 1.6 | no effect | ~ 40% and 40% | no effect |  |  | 
CCCCCCCCCC(=O)CC(=O)Nc1ccccc1 [3-oxo-C12-aniline] | 6.5 |  |  |  | 30 | 55 | strongly inhibiting pyocyanin production
